In the NIST ThermoML archive (doi:10.1016/j.jct.2015.08.011):
Numbers after ± are expanded uncertainties.

Assays:
[1] = excess molar enthalpy (molar enthalpy of mixing); xn = mol fraction of the nth substance listed; settings: 298.15 K, 101 kPa, Liquid, Flow calorimetry
[2] = 101.33 kPa, Liquid, Vibrating tube method

COC(C)(C)CC(C)(C)C [methyl 1,1,3,3-tetramethylbutyl ether] + CO
[1]
Settings | excess molar enthalpy [kcal/mol]
x2 = 0.051 | 0.0476 ± 0.00335
x2 = 0.097 | 0.0767 ± 0.00406
x2 = 0.193 | 0.11 ± 0.0055
x2 = 0.299 | 0.126 ± 0.00621
x2 = 0.391 | 0.128 ± 0.00621
x2 = 0.489 | 0.124 ± 0.00598
x2 = 0.591 | 0.112 ± 0.0055
x2 = 0.695 | 0.0966 ± 0.00478
x2 = 0.794 | 0.0736 ± 0.00382
x2 = 0.896 | 0.0425 ± 0.00239

COC(C)(C)CC(C)(C)C [methyl 1,1,3,3-tetramethylbutyl ether]
[2]
Settings | mass density [kg/m3]
298.15 K | 792.4 ± 1.6
308.15 K | 784.1 ± 1.6
318.15 K | 776 ± 1.6
328.15 K | 767.6 ± 1.5
338.15 K | 759.2 ± 1.5
348.15 K | 750.7 ± 1.5
358.15 K | 742.1 ± 1.5
368.15 K | 733.4 ± 1.5
378.15 K | 724.5 ± 1.5
388.15 K | 715.5 ± 1.4
398.15 K | 706.3 ± 1.4
408.16 K | 696.8 ± 1.4

CO [methanol]
Settings | mass density [kg/m3]
[2], 298.15 K | 786.2 ± 1.6
